Measurements taken from paper PMC6424980, “Distinct G protein-coupled receptor phosphorylation motifs modulate arrestin affinity and activation and global conformation” (Nature Communications, 2019).
Each block holds one molecule with its values, some of them ahead of it. Non-standard residues stand in square brackets, D forms with d. No end group written: not given here. pT = C[C@@H](OP(=O)(O)O)[C@H](N)C(=O)O; pS = N[C@@H](COP(=O)(O)O)C(=O)O

Key:
[1] = test system: arrestin-1; test: [15N,1H]TROSY NMR titration of arrestin-1 with peptide; assay type: binding, bovine; conditions: peptide:arrestin-1 up to 10:1
Experimental: ^2H,^15N,^13C-labeled arrestin-1 aliquots were thawed quickly under running water, transferred to 30 kDa-cutoff Vivaspin (0.5 ml, Sartorius) centrifugal spin concentrators, and concentrated to approximately 600 μM. The concentrator was immediately transferred into a beaker filled with 400 ml of NMR buffer 1 or 2 (see below) carried by a floatation device. The dialysis was performed at 4 °C overnight. On the next day the concentration was determined by UV absorbance at 280 nm (molar extinction coefficient 26,360/mol/cm). […] The dialysis was performed at 4 °C overnight, and the peptide concentration was determined by its absorbance at 205 nm (molar extinction coefficient: 54,310/mol/cm). […]
NMR measurements were performed on Bruker Avance III-HD 600 or 900 MHz spectrometer using a CTCI cryo-cooled probehead. […] Pulse lengths were calibrated for ^1H manually and for ^13C/^15N using an in-house automated procedure. pH was monitored using the position of the phosphate signal in NMR buffer 2 as an internal reference and varied by no more than 0.03 pH units during peptide titration experiments. [^15N,^1H]TROSY experiments were recorded with internal ETH pulse sequences, whereas 3D triple resonance TROSY experiments were recorded using the manufacturer’s pulse sequences. […]

[2] = test system: arrestin-1 (F85A, F197A); test: Limited trypsin digestion of arrestin-1 in presence of peptide; assay type: biochemical, bovine; conditions: arrestin:peptide 1:1.2, 35 °C, SDS PAGE
Excerpt: Synthesized cDNAs of bovine arrestin-1, human arrestin-2 and human arrestin-3 were ordered from Genewiz, amplified by PCR and cloned (Supplementary Information Table 5) into the pET-15b vector (Novagen), using the Gibson Assembly protocol. The constructs contained an N-terminal hexa histidine tag linked by a linker that contained a Tobacco Etch Virus cleavage site (TEV; […]). PCR was used to introduce the monomerizing arrestin-1 mutations (F85A, F197A)[58]. Note that this mutant was employed for fluorescence anisotropy, trypsin digestion, and NMR experiments. Wild-type arrestin-2 and -3 were used for fluorescence anisotropy and trypsin digestion experiments. […] The arrestin-1 in this construct had the wild-type sequence. Note that this construct differs slightly from that previously published[59],[60] and was optimized for purification. We verified the functionality of this fusion construct using the standard centrifugal pull-down assay using phosphorylated rhodopsin in native ROS membranes.
Arrestin (60 µg) was mixed at a 1 to 1.2 molar ratio with peptide and preincubated at RT for 5 min before 1 μl of 0.15 mg/ml trypsin stock was added. The enzymatic digestion was carried out at 35 °C (20 mM Bis-Tris propane pH 7.0, 150 mM NaCl, 10 mM 2‑Mercaptoethanol and 2 mM EDTA). At certain time points (5, 15, 30, 60, 90 min), 5 μl aliquots were quenched with heat incubation in the presence of 20 μl SDS loading buffer (95 °C, 5 min) and then subjected to SDS PAGE. Bands were visualized with InstantBlue (Expedeon).

[3] = biological target: fully phosphorylated peptide 7P of the bovine rhodopsin C-terminus (bovine); test: fluorescence polarisation; fluorescence anisotropy; 20 nM fluorescently labelled peptide, 11-step serial dilution of arrestin; 20 mM Bis-Tris propane pH 7.0, 150 mM NaCl, 8 mM 2-mercaptoethanol, 2% BSA, 0.02% Tween-20; RT; one-to-one binding model
[4] = biological target: bovine arrestin-1 with the monomerizing mutations F85A, F197A (bovine, UniProt P08168 2-404, F85A | F197A); test: FP

Molecule: CDDEASTTVSKTETSQVAPA [0P, nonphosphorylated peptide analog of the bovine rhodopsin C-terminus with N-terminal cysteine]
NMR chemical shift / peak changes in arrestin-1 (in words) [1]: some minor changes in peak intensity | limited trypsin digest pattern of arrestin-1 (conformational change, C-tail displacement) [2]: three major bands

Kd [3]: < 250 µM
Molecule: bovine arrestin-1 with the monomerizing mutations F85A, F197A (from UniProt P08168 2-404) (natural protein)

Kd [4]: 94 µM
Molecule: C(fluorescein‑5‑maleimide)DDEASTTVSK[pT]ET[pS]QVAPA (also: third phosphorylation site not given here) [tri-phosphorylated peptide 3Pd of the bovine rhodopsin C-terminus]
